According to US9346820B2, “HIV-1 protease inhibitors having gem-di-fluoro bicyclic P2-ligands” (priority 2013, dated 2016):

Experiments:
[1] = test system: HIV-1LAI; assay: Drug susceptibility MTT assay, MT-2 cells exposed to HIV-1LAI; format: cell-based
Experimental: (§1) The susceptibility of HIV-1LAI to various drugs was determined as previously described with minor modifications. Briefly, MT-2 cells (10^4/ml) were exposed to 100 50% tissue culture infectious doses (TCID50) of HIV-1LAI in the presence or absence of various concentrations of drugs in 96-well microculture plates and were incubated at 37° C. for 7 days. After 100 μl of the medium was removed from each well, 3-(4,5-dimetylthiazol-2-yl)-2,5-diphenyltetrazolium bromide (MTT) solution (10 μl, 7.5 mg/ml in phosphate-buffered saline) was added to each well in the plate, followed by incubation at 37° C. for 2 h. […] All assays were performed in duplicate or triplicate. […] To determine the sensitivity of primary HIV-1 isolates to drugs, phytohemagglutinin-stimulated peripheral blood mononuclear cells (PHA-PBMC) (10^6/ml) were exposed to 50 TCID50 of each primary HIV-1 isolate and cultured in the presence or absence of various concentrations of drugs in 10-fold serial dilutions in 96-well microculture plates. In determining the drug susceptibility of certain laboratory HIV-1 strains, MT-4 cells were employed as target cells as previously described with minor modifications. In brief, MT-4 cells (10^5/ml) were exposed to 100 TCID50 of drug-resistant HIV-1 strains in the presence or absence of various concentrations of drugs and were incubated at 37° C. On day 7 of culture, the supernatants were harvested and the amounts of p24 Gag protein were determined by using a fully automated chemiluminescent enzyme immunoassay system (Lumipulse F: Fujirebio Inc., Tokyo). […] All assays were performed in duplicate or triplicate. PHA-PBMs were derived from a single donor in each independent experiment. Thus, for obtaining the data, three different donors were recruited.

[2] = test system: HIV-1GRL05010^RP10; assay: microbe, parasite or virus in culture; format: cell-based
[3] = test system: HIV-1MDR/TM; assay: microbe, parasite or virus in culture; format: cell-based
Experimental: (§2) All primary HIV-1 strains were passaged once or twice in 3-day-old phytohemagglutinin activated peripheral blood mononuclear cells (PHA-PBM), and the culture supernatants were stored at −80° C. until use.
as §1

[4] = test system: HIV-1MDR/JSL; assay: microbe, parasite or virus in culture; format: cell-based
Experimental: as §2, §1

[5] = test system: HIV-1MDR/MM; assay: microbe, parasite or virus in culture; format: cell-based
Experimental: as §2, §1

[6] = test system: HIV-1MDR/C; assay: microbe, parasite or virus in culture; format: cell-based
Experimental: as §2, §1

[7] = test system: HIV-1MDR/B; assay: microbe, parasite or virus in culture; format: cell-based
Experimental: as §2, §1

[8] = test system: HIV-1MDR/G; assay: microbe, parasite or virus in culture; format: cell-based
Experimental: as §2, §1

[9] = test system: HIV-1NL4-3; assay: p24 Gag production inhibition in MT-4 cells, wild-type laboratory strain; format: cell-based; details: Human immunodeficiency virus 1, MT4; MT-4 cells, p24 Gag endpoint; read-out: EC50 HIV-1NL4-3
Experimental: as §1

[10] = test system: HIV-1SQV^R5μM; assay: microbe, parasite or virus in culture; format: cell-based
Experimental: as §1

[11] = test system: HIV-1APV^R5μM; assay: microbe, parasite or virus in culture; format: cell-based
Experimental: as §1

[12] = test system: HIV-1LPV^R5μM; assay: microbe, parasite or virus in culture; format: cell-based
Experimental: as §1

[13] = test system: HIV-1ATV^R5μM; assay: microbe, parasite or virus in culture; format: cell-based
Experimental: as §1

[14] = in vitro; details: rat and monkey, Papp
Experimental: The BBB Kit™ was kept at −80° C. until thawing on day 0 of the experiments. Nutritional medium was added to both brain and blood sides of the wells. This solution consists of DMEM F-12 medium with FCS 10% v/v, heparin 100 μg/ml, basic fibroblast growth factor (bFGF) 1.5 ng/ml, insulin 5 μg/ml, transferrin 5 μg/ml, sodium selenite 5 ng/ml, hydrocortisone 500 nM and gentamycin 50 μg/ml. Fresh medium was added 3 hours after thawing following the manufacturer's instructions, and 24 hours later. The plates were incubated at 37° C. until day 4 of the experiment when the condition of astrocytes was checked under a light microscope. Following this, the integrity of the collagen-coated membrane was verified by the measurement of the transendothelial electrical resistance (TEER) using an ohmmeter provided by the manufacturer. […] Detailed information regarding the components of the BBB Kit as well as its mechanisms can be seen by accessing the manufacturer's website http://www.pharmacocell.co.jp/en/bbb/index_e.html.
Standard curves were generated for each compound on a light spectrophotometer as previously described. 100 μM of each compound was added to the luminal (blood side) of the wells, incubated at 37° C. for 30 minutes and then, the amount of drug that crossed the in vitro BBB was collected and measured under a light spectrophotometer at 230 nanometer absorbances.
Papp was calculated using the following mathematical formula: […]
This model (BBB Kit™) is thought to represent an in vitro BBB model for drug transport assays, permitting an adequate cross-talk of the cell lines involved and provide a way to test an apparent passage of small molecules across the BBB as previously described by Nakagawa et al. (41). […] The concentrations of each compound that permeated into the abluminal interface (termed “brain side”) were determined using a spectrophotometer, 30 min after the addition of each drug to the wells.
The mathematical formula used for the calculation of Papp is described in Materials and Methods.

With `CC(C)CN(C[C@@H](O)[C@H](Cc1ccccc1)NC(=O)O[C@H]1CO[C@H]2OCC(F)(F)[C@H]21)S(=O)(=O)c1ccc(N)cc1` [GRL-05010] the EC50 ([1]; Human immunodeficiency virus 1, MT2, MT-2 cells, 100 TCID50, MTT assay, read-out: EC50 HIV-1LAI) was 3 nM, the “Selectivity Index” value ([1]; ratio of CC50 to EC50 against HIV-1LAI) was 12,333 and the EC50 ([2]; Human immunodeficiency virus 1, MT4, read-out: EC50 HIV-1GRL05010^RP10) was 36 nM. For the same molecule, the “fold change of EC50 HIV-1GRL05010^RP10 vs HIV-1NL4-3” value ([2]; number in parentheses) was 10 fold, the EC50 ([3]; Human immunodeficiency virus 1, read-out: EC50 HIV-1MDR/TM (X4)) was 4 nM and the “fold change of EC50 HIV-1MDR/TM vs HIV-1ERS104pre” value ([3]; number in parentheses) was 2 fold. The EC50 ([4]; Human immunodeficiency virus 1, read-out: EC50 HIV-1MDR/JSL (R5)) was 20 nM, the “fold change of EC50 HIV-1MDR/JSL vs HIV-1ERS104pre” value ([4]; number in parentheses) was 7 fold and the EC50 ([5]; Human immunodeficiency virus 1, read-out: EC50 HIV-1MDR/MM (R5)) was 3 nM. For the same molecule, the “fold change of EC50 HIV-1MDR/MM vs HIV-1ERS104pre” value ([5]; number in parentheses) was 1 fold, the EC50 ([6]; Human immunodeficiency virus 1, read-out: EC50 HIV-1MDR/C (X4)) was 2 nM and the “fold change of EC50 HIV-1MDR/C vs HIV-1ERS104pre” value ([6]; number in parentheses) was 1 fold. The EC50 ([7]; Human immunodeficiency virus 1, read-out: EC50 HIV-1MDR/B (X4)) was 11 nM, the “fold change of EC50 HIV-1MDR/B vs HIV-1ERS104pre” value ([7]; number in parentheses) was 3 fold and the EC50 ([8]; Human immunodeficiency virus 1, read-out: EC50 HIV-1MDR/G (X4)) was 4 nM. The “fold change of EC50 HIV-1MDR/G vs HIV-1ERS104pre” value ([8]; number in parentheses) was 1 fold, the EC50 [9] was 3.7 nM and the EC50 ([10]; Human immunodeficiency virus 1, MT4, read-out: EC50 HIV-1SQV^R5μM) was 46 nM. The “fold change of EC50 HIV-1SQV^R5μM vs HIV-1NL4-3” value ([10]; number in parentheses) was 13 fold, the EC50 ([11]; Human immunodeficiency virus 1, MT4, read-out: EC50 HIV-1APV^R5μM) was 560 nM and the “fold change of EC50 HIV-1APV^R5μM vs HIV-1NL4-3” value ([11]; number in parentheses) was 187 fold. For the same molecule, the EC50 ([12]; Human immunodeficiency virus 1, MT4, read-out: EC50 HIV-1LPV^R5μM) was 30 nM, the “fold change of EC50 HIV-1LPV^R5μM vs HIV-1NL4-3” value ([12]; number in parentheses) was 8 fold and the EC50 ([13]; Human immunodeficiency virus 1, MT4, read-out: EC50 HIV-1ATV^R5μM) was 40 nM. The “fold change of EC50 HIV-1ATV^R5μM vs HIV-1NL4-3” value ([13]; number in parentheses) was 12 fold and the Papp at 30 min, 100 μM [14] was 61.8 ×10⁻⁶ cm/s.
